Experiment [1] has as its system wound repair. Nature of the experiment: Supplementation of individuals with DHEA, wound healing in the aged. The experiment is classed as in vivo.
Experiment [2] concerns full thickness incisional wounds. Nature of the experiment: Incisional wound healing in OVX and sham rats, histology at day 7 post-wounding. The experiment is classed as in vivo, Female Sprague Dawley rats. On the set-up: key to NEW COLLAGEN / CELLS: + = little/few; ++++ = lots); key to EPITHELIALISATION: Y = epithelialised. From the text:
Female Sprague Dawley rats were housed together in three groups (1A, 1B and 1C) of nine to allow for synchronised oestrus cycling. Group 1A were ovariectomised (OVX) 18 days prior to wounding to allow circulating sex hormone levels to be eliminated. Group 1B (control) were untreated and Group 1C had the same operative procedure as the OVX (Group 1A), but without the removal of the ovaries, to ensure that the OVX operative procedure had no effect on the wounding studies (sham).
17 β-oestradiol (Sigma) was prepared as sterile 0.1% and 1% solutions in phosphate buffered saline (PBS) containing 0.1% and 1% 2-hydroxypropyl-β-cyclodextrin respectively, 2-hydroxypropyl-β-cyclodextrin is used in preparations as a carrier molecule to increase the water solubility of β-oestradiol. PBS/cyclodextrin was used as a vehicle control.
Animals from Groups 1A, 1B and 1C were given 4×1 cm length full thickness incisional wounds at 4.5-5.5 cm and 7.5-8.5 cm below the base of the skull, 1 cm either side of the midline. A single 100 μl intradermal injection was then given at each of the four wound sites. Each of the wounds (a total of 36 wounds on 9 rats in each group) received either 100 μl of oestradiol (0.1% or 1%), 100 μl of vehicle control (0.1% or 1% cyclodextrin) or was left unmanipulated (no injection).
The wounds were allowed to heal for 7 days after which the wounded tissue was excised for histological analysis.
7 μm paraffin-embedded sections were stained with H&E and Masson's Trichrome. The rate of re-epithelialisation (at day 7 post-wounding), and wound sizes as determined by planimetry, were determined with image analysis using an Olympus Vanox camera and PC image capture system. Collagen quantity within the wound was determined by two observers blinded to the identity of the specimen.

For experiment [3], the system named is 4 mm punch biopsy wounds of the upper inner arm. In words: Topical oestrogen patch clinical trial of wound healing in elderly men and women. The experiment is classed as in vivo, human. Particulars: patch applied to the wound for 24 hours post-wounding. As to the method: Approval for this study was given by the local Ethics Committee. Forty health-status defined volunteers split into four groups: (i) GROUP 3A comprised ten women with mean age 76.3 yr (Sd 5.6) who received oestrogen supplements (25 μg/24 hrs of oestradiol) (ii) GROUP 3B comprised ten women with mean age 72.5 yr (Sd 7.1) who received placebo instead of oestrogen. (iii) GROUP 3C comprised ten men with mean age 69.6 yr (Sd 3.6) who received oestrogen supplements (ii) GROUP 3D comprised ten men with mean age 71.8 yr (Sd 8.9) who received placebo instead of oestrogen. After informed consent subjects from each of Groups 3A, 3B, 3C and 3D underwent two 4 mm punch biopsies from the upper inner arm (a non sun-exposed site) following local infiltration with 1 ml 1% lignocaine. Each biopsy of normal skin was bisected and one-half embedded in Optimal Cutting Temperature compound (Miles Inc. Elkhart, Ind.), frozen over liquid nitrogen, and stored at −70° C., and one-half snap-frozen in liquid nitrogen and stored at −70° C. The area for biopsy was covered by a 2×3 cm patch (placebo Groups 3B and 3D or active oestradiol 3A and 3C) through which the biopsies were made. The patch was covered by a Multisorb dry gauze dressing (Smith & Nephew) and both were removed after 24 hrs. The active patches contained sufficient oestradiol such that the wound sites were exposed to 25 μg/24 hrs of oestradiol. Five subjects from Groups 3A, 3B, 3C and 3D underwent re-excision of the wounds at day 7 post-wounding, and the other five subjects from each group at day 84 post-wounding. The left upper inner arm was cleaned with isopropyl alcohol, elliptical excisions of the wounds were made following 1% lignocaine infiltration and two sutures were used to close the gap. Each wound was bisected and processed as described above (3.1.3). 7 μm paraffin-embedded sections were strained with H&E and Masson's Trichrome. The rate of re-epithelialisation (at day 7 post-wounding), and wound sizes as determined by planimetry, were determined with image analysis using an Olympus Vanox camera and PC image capture system. Collagen quantity within the wound was determined by two observers blinded to the identity of the specimen on the following scale +=minimal quantities; ++=less than normal skin; +++=similar to normal skin; ++++=greater than normal skin. The wound stiffness at day 80 was determined using the non-disruptive Dimensional Analysis System (Das). Previous studies have correlated wound breaking strength values (ultimate pressure at failure) to wound stiffness using this system. The system applies a multiaxial load (negative pressure) to the wound and measures the deformation due to the load of two reflective targets placed at the wound edges, using a high resolution camera and video processor. Pressure was applied to a maximum of 100 mmHg and then released, Stiffness was measured between 20 and 80 mmHg.

[4] abbreviates: 0.1% oestradiol with 0.1% cyclodextrin vehicle, single 100 μl intradermal injection, OVX rats.
[5] abbreviates: 0.1% oestradiol with 0.1% cyclodextrin vehicle, single 100 μl intradermal injection, SHAM rats.
Setting [6] is: 1% oestradiol with 1% cyclodextrin vehicle, single 100 μl intradermal injection, OVX rats.
The mark [7] stands for this setting: 1% oestradiol with 1% cyclodextrin vehicle, single 100 μl intradermal injection, SHAM rats.

The values below come from patent US6696433B2, “Use of sex steroids function modulators to treat wounds and fibrotic disorders” (Renovo Limited, priority 1996, dated 2004).

For `C[C@]12CC[C@H](O)CC1=CC[C@@H]1[C@@H]2CC[C@]2(C)C(=O)CC[C@@H]12` [DHEA, Dehydroepiandrosterone], in experiment [1], the “rate of wound repair” value was “stimulating the rate of wound repair”.
`C[C@]12CC[C@@H]3c4ccc(O)cc4CC[C@H]3[C@@H]1CC[C@@H]2O` [OESTRADIOL, 17 β-oestradiol]: the CELLS entry in experiment [2] (setting [4]) is recorded as “+”. Also, the EPITHELIALISATION entry in experiment [2] (setting [4]), in experiment [2] (setting [5]), in experiment [2] (setting [6]) and in experiment [2] (setting [7]) was “Y” in each case. Further, the “NEW COLLAGEN” value in experiment [2] (setting [4]) is on record as “++++”. Further, the “WOUND WIDTH” value is on record as “narrow” in experiment [2] (setting [4]), “narrow” in experiment [2] (setting [5]), “narrow” in experiment [2] (setting [6]) and “wide” in experiment [2] (setting [7]). Besides, the “rate of wound healing” value was “increased rate of wound healing” in experiment [2] (1% β-oestradiol, OVX group wounds, compared to control PBS treated and unmanipulated wounds); “accelerated wound healing” in experiment [2] (single application of 0.1% β-oestradiol, OVX wounds, compared to control wounds). Besides, in experiment [3], the “rate at which the wound heals” value was “sufficient to improve the rate at which the wound heals”.
